# Test results published in patent US9174997B2, “4-(4-cyano-2-thioaryl)dihydropyrimidinones and use thereof” (Bayer Intellectual Property GmbH, priority 2007, dated 2015).
# Target: human neutrophil elastase (HNE) (Homo sapiens (Human), UniProt P08246)
# Assay: In vitro HNE inhibition assay
# Type: biochemical
# Details: HNE concentration of 80 pM; substrate MeOSuc-Ala-Ala-Pro-Val-AMC; 37° C. for 2 hours
# Method: B-1. In Vitro HNE Inhibition Assay
# The potency of the compounds of the invention is ascertained in an in vitro inhibition assay. The HNE-mediated amidolytic cleavage of a suitable peptide substrate leads in this connection to an increase in the fluorescent light. The signal intensity of the fluorescent light is directly proportional to the enzyme activity.
# Enzyme ([…]; from Serva, Heidelberg) and substrate (20 μM MeOSuc-Ala-Ala-Pro-Val-AMC; from Bachem, Weil am Rhein) are incubated in an assay volume of in total 50 μl of assay buffer (0.1 M HEPES pH 7.4, 0.5 M NaCl, 0.1% w/v BSA, 1% v/v DMSO) in a 384-well microtiter plate in the presence and absence of the test substance at 37° C. for 2 hours. […] The IC50 values are determined by plotting the intensity of the fluorescent light against the active substance concentration.
# Sequence of human neutrophil elastase (HNE) (P08246 30-267): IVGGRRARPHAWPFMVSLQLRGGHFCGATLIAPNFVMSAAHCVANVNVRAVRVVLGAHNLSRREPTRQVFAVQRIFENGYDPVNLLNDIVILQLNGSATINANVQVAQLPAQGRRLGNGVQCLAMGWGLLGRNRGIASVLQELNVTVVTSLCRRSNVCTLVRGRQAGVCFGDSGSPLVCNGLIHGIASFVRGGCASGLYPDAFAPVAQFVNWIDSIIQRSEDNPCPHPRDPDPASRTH
row,IC50,Structure (SMILES)
1,< 0.3 nM,CC1=C(C#N)[C@@H](c2ccc(C#N)cc2S(C)(=O)=O)N(S(=O)(=O)c2ccccc2C#N)C(=O)N1c1cccc(C(F)(F)F)c1 [Example 103]
2,< 0.3 nM,"CC1=C(C#N)[C@@H](c2ccc(C#N)cc2S(C)(=O)=O)N(C(=O)N2CC[C@H](O)C2)C(=O)N1c1cccc(C(F)(F)F)c1 [Example 18, (4S)-4-[4-Cyano-2-(methylsulfonyl)phenyl]-3-{[(3S)-3-hydroxypyrrolidin-1-yl]carbonyl}-6-methyl-2-oxo-1-[3-(trifluoromethyl)phenyl]-1,2,3,4-tetrahydropyrimidine-5-carbonitrile]"
3,< 0.3 nM,CC1=C(C#N)[C@@H](c2ccc(C#N)cc2S(C)(=O)=O)N(C(=O)N(CC(C)O)CC(C)O)C(=O)N1c1cccc(C(F)(F)F)c1 (stereo partly shown) [Example 80]
4,< 0.3 nM,"CC1=C(C#N)[C@@H](c2ccc(C#N)cc2S(=O)(=O)c2ccccc2)NC(=O)N1c1cccc(C(F)(F)F)c1 [Example 141, (4S)-4-{4-Cyano-2-[phenylsulfonyl]phenyl}-6-methyl-2-oxo-1-[3-(trifluoromethyl)phenyl]-1,2,3,4-tetrahydropyrimidine-5-carbonitrile]"
5,< 0.3 nM,"CC1=C(C#N)[C@@H](c2ccc(C#N)cc2S(C)(=O)=O)N(C(=O)N2CCC[C@@H](N)C2)C(=O)N1c1cccc(C(F)(F)F)c1 [Example 55, (4S)-3-[(3R)-3-Aminopiperidin-1-yl]carbonyl-4-[4-cyano-2-(methylsulfonyl)phenyl]-6-methyl-2-oxo-1-[3-(trifluoromethyl)phenyl]-1,2,3,4-tetrahydropyrimidine-5-carbonitrile]"
6,< 0.3 nM,CC1=C(C#N)[C@@H](c2ccc(C#N)cc2S(C)(=O)=O)N(C(=O)NC(C)(C)CO)C(=O)N1c1cccc(C(F)(F)F)c1 [Example 85]
7,1.1 nM,"CC1=C(C#N)C(c2ccc(C#N)cc2S(=O)(=O)CCO)NC(=O)N1c1cccc(C(F)(F)F)c1 (racemic) [Example 132, (rac)-4-[4-Cyano-2-((2-hydroxyethyl)sulfonyl)phenyl]-6-methyl-2-oxo-1-[3-(trifluoromethyl)phenyl]-1,2,3,4-tetrahydropyrimidine-5-carbonitrile]"
8,< 0.3 nM,"CC1=C(C#N)[C@@H](c2ccc(C#N)cc2S(C)(=O)=O)N(C(=O)N2CC(O)C2)C(=O)N1c1cccc(C(F)(F)F)c1 [Example 51, (4S)-4-[4-Cyano-2-(methylsulfonyl)phenyl]-3-[(3-hydroxyazetidin-1-yl)carbonyl]-6-methyl-2-oxo-1-[3-(trifluoromethyl)phenyl]-1,2,3,4-tetrahydropyrimidine-5-carbonitrile]"

# Test system: rat hepatocytes
# Assay: Hepatocyte assay to determine the metabolic stability
# Type: in vitro ADME
# Details: after incubation with rat hepatocytes
# Method: B-6. Hepatocyte Assay to Determine the Metabolic Stability
# The metabolic stability of test compounds in the presence of hepatocytes is determined by incubating the compounds with low concentrations (preferably below or around 1 μM) and with low cell counts (preferably 1*10^6 cells/ml) in order to ensure as far as possible linear kinetic conditions in the experiment. Seven samples of the incubation solution are taken in a fixed time pattern for the […] analysis in order to determine the half-life (i.e. the degradation) of the compound in each case. Various clearance parameters (CL) and Fmax values are calculated from this half-life (see below).
# The Cl and Fmax values represent a measure of the phase 1 and phase 2 metabolism of the compounds in the hepatocytes. In order to minimize the influence of the organic solvent on the enzymes in the incubation mixtures, this concentration is generally limited to 1% (acetonitrile) or 0.1% (DMSO).
# A cell count for hepatocytes in the liver of 1.1*10^8 cells/g of liver is used for calculation for all species and breeds.
# The calculated parameters and their meaning are:
# Representative values for the compounds according to the invention from this assay after incubation of the compounds with rat hepatocytes are shown in Table B below: […]
"CLblood, calculated blood clearance (well stirred model)","Fmax, maximum possible bioavailability after oral administration (well-stirred)",Structure (SMILES)
3.3 mL/min/kg,96%,"CC1=C(C#N)[C@@H](c2ccc(C#N)cc2S(C)(=O)=O)NC(=O)N1c1cccc(C(F)(F)F)c1 [Example 6, (4S)-4-[4-Cyano-2-(methylsulfonyl)phenyl]-6-methyl-2-oxo-1-[3-(trifluoromethyl)phenyl]-1,2,3,4-tetrahydropyrimidine-5-carbonitrile]"
16.7 mL/min/kg,75%,"CN1CC2=C(C1=O)[C@@H](c1ccc(C#N)cc1S(C)(=O)=O)N(C)C(=O)N2c1cccc(C(F)(F)F)c1 [Example 123, 4-(4S)-3,6-Dimethyl-2,5-dioxo-1-[3-(trifluoromethyl)phenyl]-2,3,4,5,6,7-hexahydro-1 H-pyrrolo[3,4-d]pyrimidin-4-yl-3-(methylsulfonyl)benzonitrile]"
1.7 mL/min/kg,97%,"CC1=C(C#N)[C@@H](c2ccc(C#N)cc2S(C)(=O)=O)N(c2ccc(C#N)cc2)C(=O)N1c1cccc(C(F)(F)F)c1 [Example 117, (4S)-4-[4-Cyano-2-(methylsulfonyl)phenyl]-3-(4-cyanophenyl)-6-methyl-2-oxo-1-[3-(trifluoromethyl)phenyl]-1,2,3,4-tetrahydropyrimidine-5-carbonitrile]"
15 mL/min/kg,79%,"CCS(=O)(=O)c1cc(C#N)ccc1[C@@H]1C(C#N)=C(C)N(c2cccc(C(F)(F)F)c2)C(=O)N1S(C)(=O)=O [Example 129, (4S)-4-[4-Cyano-2-(ethylsulfonyl)phenyl]-6-methyl-3-(methylsulfonyl)-2-oxo-1-[3-(trifluoromethyl)phenyl]-1,2,3,4-tetrahydropyrimidine-5-carbonitrile]"
0 mL/min/kg,100%,"CC1=C(C(N)=O)[C@@H](c2ccc(C#N)cc2S(C)(=O)=O)NC(=O)N1c1cccc(C(F)(F)F)c1 [Example 5, (4S)-4-[4-Cyano-2-(methylsulfonyl)phenyl]-6-methyl-2-oxo-1-[3-(trifluoromethyl)phenyl]-1,2,3,4-tetrahydropyrimidine-5-carboxamide]"
10 mL/min/kg,86%,"CC1=C(C#N)[C@@H](c2ccc(C#N)cc2S(C)(=O)=O)N(c2cccc(C(F)(F)F)c2)C(=O)N1c1cccc(C(F)(F)F)c1 [Example 118, (4S)-4-[4-Cyano-2-(methylsulfonyl)phenyl]-6-methyl-2-oxo-1,3-bis[3-(trifluoromethyl)phenyl]-1,2,3,4-tetrahydropyrimidine-5-carbonitrile]"
6.7 mL/min/kg,91%,"CCS(=O)(=O)N1C(=O)N(c2cccc(C(F)(F)F)c2)C(C)=C(C#N)[C@H]1c1ccc(C#N)cc1S(C)(=O)=O [Example 31, (4S)-4-[4-Cyano-2-(methylsulfonyl)phenyl]-6-methyl-3-(ethylsulfonyl)-2-oxo-1-[3-(trifluoromethyl)phenyl]-1,2,3,4-tetrahydropyrimidine-5-carbonitrile]"
3.3 mL/min/kg,96%,"CN1CC2=C(C1=O)C(c1ccc(C#N)cc1S(C)(=O)=O)N(C(=O)NCCO)C(=O)N2c1cccc(C(F)(F)F)c1 (racemic) [Example 38, (rac)-4-[4-Cyano-2-(methylsulfonyl)phenyl]-N-(2-hydroxyethyl)-6-methyl-2,5-dioxo-1-[3-(trifluoromethyl)phenyl]-1,2,4,5,6,7-hexahydro-3H-pyrrolo[3,4-d]pyrimidine-3-carboxamide]"
6.7 mL/min/kg,90%,"CC1=C(C#N)[C@@H](c2ccc(C#N)cc2S(C)(=O)=O)N(S(=O)(=O)c2ccccc2OC(F)(F)F)C(=O)N1c1cccc(C(F)(F)F)c1 [Example 29, (4S)-4-[4-Cyano-2-(methylsulfonyl)phenyl]-6-methyl-3-{[2-(trifluoromethoxy)phenyl]sulfonyl}-2-oxo-1-[3-(trifluoromethyl)phenyl]-1,2,3,4-tetrahydropyrimidine-5-carbonitrile]"
3.3 mL/min/kg,94%,"CCS(=O)(=O)c1cc(C#N)ccc1[C@H]1NC(=O)N(c2cccc(C(F)(F)F)c2)C(C)=C1C#N [Example 127, (4S)-4-[4-Cyano-2-(ethylsulfonyl)phenyl]-6-methyl-2-oxo-1-[3-(trifluoromethyl)phenyl]-1,2,3,4-tetrahydropyrimidine-5-carbonitrile]"
5 mL/min/kg,93%,"CC1=C(C#N)[C@@H](c2ccc(C#N)cc2S(C)(=O)=O)N(CC(=O)N2CCNC(=O)C2)C(=O)N1c1cccc(C(F)(F)F)c1 [Example 25, (4S)-4-[4-Cyano-2-(methylsulfonyl)phenyl]-6-methyl-2-oxo-3-[2-oxo-2-(3-oxopiperazin-1-yl)ethyl]-1-[3-(trifluoromethyl)phenyl]-1,2,3,4-tetrahydropyrimidine-5-carbonitrile]"
12 mL/min/kg,83%,CC1=C(C#N)[C@@H](c2ccc(C#N)cc2S(C)(=O)=O)N(S(=O)(=O)c2cn(C)c(C)n2)C(=O)N1c1cccc(C(F)(F)F)c1 [Example 92]
10 mL/min/kg,87%,"CC1=C(C#N)[C@@H](c2ccc(C#N)cc2S(C)(=O)=O)N(C)C(=O)N1c1cccc(C(F)(F)F)c1 [Example 33, (4S)-4-[4-Cyano-2-(methylsulfonyl)phenyl]-3,6-dimethyl-2-oxo-1-[3-(trifluoromethyl)phenyl]-1,2,3,4-tetrahydropyrimidine-5-carbonitrile]"
